# Assay results: patent US20260317344A1, “EGFR INHIBITORS FOR TREATING DISEASE” (BLOSSOMHILL THERAPEUTICS, INC., priority 2023, published 2026)
# Legend:
# [1] = target: T1, pEGFR, A431 cells (wildtype EGFR) (Homo sapiens, UniProt P00533); assay: Cellular EGFR phosphorylation assay (LANCE Ultra TR-FRET) in A431 cells; format: cell-based; conditions: 4 hours at 37° C., 40 ng/mL EGF for the final 10 minutes, read-out: A431 pEGFR IC50
# T1 construct: pEGFR (Tyr1068) TR-FRET
# Description: (§1) Cellular EGFR Phosphorylation Assays
# (§2) EGFR phosphorylation assays were conducted in NSCLC cells with EGFR activation mutations. PC-9 cells (purchased from Aldrich-Sigma) carry a Glu746-Ala750 deletion (d746-750) mutation in exon 19 of the EGFR gene and NCI-H1975 cells (purchased from ATCC) carry both L858R activation mutation and T790M gatekeeper mutation in the EGFR gene. A431 cells (purchased from ATCC) with amplification of wildtype EGFR, derived from epidermoid carcinoma, were used to measure the activity against wildtype EGFR. All cells were seeded in 96-well plates. For PC-9 and NCI-H1975 cells, 50 thousand cells were seeded per well. For A431 cells, 30 thousand cells were seeded per well. The next day, cells were exposed to compound for 4 hours at 37° C. and 5% CO2. Compounds were diluted in DMSO and added to cells in a 9-dose, 3-fold dilution, titration curve using TECAN d300e liquid dispenser. For A431 cells, 40 ng/mL of EGF was added to the media for the final 10 minutes of incubation. EGFR phosphorylation was measured using phospho-EGFR (Try1068) LANCE Ultra TR-FRET Detection Kit (TRF4015M) from PerkinElmer according to manufacturer's instructions. In brief, cells were lysed with 40 μL of lysis buffer plus 1× Halt protease and phosphatase inhibitor cocktail (Thermo 78441) and by incubation at room temperature for 1 h on a microplate shaker (350 rpm). 15 μ L of cell lysate was transferred to 384-well white plate and 5 μL of Europium- and ULight-labeled antibodies diluted in 1× detection buffer was added to each well. After 4-6 hours of incubation at room temperature, plates were then read on a TECAN Sparks multimode microplate reader. Data was analyzed using GraphPad Prism 9 (GraphPad Software, San Diego, CA) to obtain IC50 values.
# EGFR (D746-750/C797S) = EGFR (D746-750/C797S) (Homo sapiens, UniProt P00533, C797S/DEL746-750); assay: HotSpot radiometric kinase assay, inhibition of EGFR 746-750/C797S mutant; format: biochemical; conditions: 33P ATP, room temperature, 120 m
# Description: (§3) Biochemical Assays for inhibition of wild-type and mutant EGFRs
# (§4) Briefly, specific kinase/substrate pairs along with required cofactors were prepared in reaction buffer; 20 mM HEPES pH 7.5, 10 mM […], 1 mM EGTA, 0.02% Brij35, 0.02 mg/ml BSA, 0.1 mM Na3VO4, 2 mM DTT, 1% DMSO. Compounds were delivered into the reaction, followed ~20 minutes later by addition of a mixture of ATP (Sigma, St. Louis MO) and ^33P ATP (Perkin Elmer, Waltham MA) to a final concentration of […]. Reactions were carried out at room temperature for 120 m, followed by spotting of the reactions onto P81 ion exchange filter paper (Whatman Inc., Piscataway, NJ). Unbound phosphate was removed by extensive washing of filters in 0.75% phosphoric acid. […] IC50 values and curve fits were obtained using Prism (GraphPad Software).
# EGFR (D746-750) = EGFR (D746-750) (Homo sapiens, UniProt P00533, DEL746-750); assay: HotSpot radiometric kinase assay, inhibition of EGFR 746-750 mutant; format: biochemical; conditions: 33P ATP, room temperature, 120 m
# Description: as §3, §4
# [2] = target: T2, pEGFR, NCI-H1975 cells (L858R/T790M EGFR) (Homo sapiens, UniProt P00533, L858R/T790M); assay: Cellular EGFR phosphorylation assay (LANCE Ultra TR-FRET) in NCI-H1975 cells; format: cell-based; conditions: 4 hours at 37° C., read-out: H1975 pEGFR IC50
# T2 construct: pEGFR (Tyr1068) TR-FRET
# Description: as §1, §2
# NCI-H1975 cells = assay: 5-Day CellTiter Glo (CTG) cell proliferation assay, NCI-H1975; format: cell-based; conditions: Homo sapiens; NCI-H1975 cells (L858R/T790M EGFR), 5-day CTG proliferation, 120 hours; read-out: H1975 IC50
# Method in brief: (§5)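 Luminescent ATP signal (CellTiter-Glo 2.0) after 120 hours of compound exposure gave IC50 values. PC-9 and HCC827 harbour EGFR d746-750; NCI-H1975 harbours L858R/T790M.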
# EGFR (L858R/T790M/C797S) = EGFR (L858R/T790M/C797S) (Homo sapiens, UniProt P00533, C797S/L858R/T790M); assay: HotSpot radiometric kinase assay, inhibition of EGFR L858R/T790M/C797S mutant; format: biochemical; conditions: 33P ATP, room temperature, 120 m
# Description: as §3, §4
# [3] = target: T3, pEGFR, PC-9 cells (d746-750 EGFR) (Homo sapiens, UniProt P00533, DEL746-750); assay: Cellular EGFR phosphorylation assay (LANCE Ultra TR-FRET) in PC-9 cells; format: cell-based; conditions: 4 hours at 37° C., read-out: PC-9 pEGFR IC50
# T3 construct: pEGFR (Tyr1068) TR-FRET
# Description: as §1, §2
# PC-9 cells = assay: 5-Day CellTiter Glo (CTG) cell proliferation assay, PC-9; format: cell-based; conditions: Homo sapiens; PC-9 cells (d746-750 EGFR), 5-day CTG proliferation, 120 hours; read-out: PC-9 IC50
# Method in brief: as §5
# HCC827 cells = assay: 5-Day CellTiter Glo (CTG) cell proliferation assay, HCC827; format: cell-based; conditions: Homo sapiens; HCC827 cells (d746-750 EGFR), 5-day CTG proliferation, 120 hours; read-out: HCC827 IC50
# Method in brief: as §5
# EGFR (D770_N771insNPG) = EGFR (D770_N771insNPG) (Homo sapiens, UniProt P00533, INS770NPG); assay: HotSpot radiometric kinase assay, inhibition of EGFR (D770_N771insNPG) mutant; format: biochemical; conditions: 33P ATP, room temperature, 120 m
# Description: as §3, §4
# [4] = test system: BaF3 cells with engineered EGFR d746-750/T790M; assay: 3-Day CellTiter Glo (CTG) cell proliferation assay, BaF3 EGFR d746-750/T790M; format: cell-based; conditions: Mus musculus; BaF3 EGFR d746-750/T790M cells, 3-day CTG proliferation, 72 hours
# Description: (§6) 3-DAY CellTiter Glo (CTG) Cell Proliferation Assays (BaF3 Cell Lines)
# (§7) Cell proliferation assays were carried out in BaF3 cells engineered with EGFR mutations. BaF3 cells with engineered EGFR L858R/T790M/C797S, EGFR L858R/C797S, or EGFR d746-750/T790M transgene, one thousand cells/50 μL per well were seeded in white 384-well plate, followed by treatment with indicated compounds in a 9-dose dilution series using TECAN d300e liquid dispenser. Cells were incubated with compounds for 72 hours at 37° C. and 5% CO2. Cell proliferation was measured using CellTiter-Gbo 2.0 luciferase-based ATP detection assay (Promega, Madison, WI) at 18 μL per well following the manufacturer's protocol. Plates were then read on a TECAN Sparks multimode microplate reader. Data was analyzed using GraphPad Prism 9 (GraphiPad Software, San Diego, CA) to obtain IC50 values.
# [5] = test system: BaF3 cells with engineered EGFR L858R/C797S; assay: 3-Day CellTiter Glo (CTG) cell proliferation assay, BaF3 EGFR L858R/C797S; format: cell-based; conditions: Mus musculus, 3-day CTG proliferation, 72 hours
# Description: as §6, §7
# [6] = test system: BaF3 cells with engineered EGFR L858R/T790M/C797S; assay: 3-Day CellTiter Glo (CTG) cell proliferation assay, BaF3 EGFR L858R/T790M/C797S; format: cell-based; conditions: Mus musculus, 3-day CTG proliferation, 72 hours
# Description: as §6, §7
# Chain of EGFR (D770_N771insNPG) (P00533 with tags, fused parts or gaps INS770NPG limits assumed): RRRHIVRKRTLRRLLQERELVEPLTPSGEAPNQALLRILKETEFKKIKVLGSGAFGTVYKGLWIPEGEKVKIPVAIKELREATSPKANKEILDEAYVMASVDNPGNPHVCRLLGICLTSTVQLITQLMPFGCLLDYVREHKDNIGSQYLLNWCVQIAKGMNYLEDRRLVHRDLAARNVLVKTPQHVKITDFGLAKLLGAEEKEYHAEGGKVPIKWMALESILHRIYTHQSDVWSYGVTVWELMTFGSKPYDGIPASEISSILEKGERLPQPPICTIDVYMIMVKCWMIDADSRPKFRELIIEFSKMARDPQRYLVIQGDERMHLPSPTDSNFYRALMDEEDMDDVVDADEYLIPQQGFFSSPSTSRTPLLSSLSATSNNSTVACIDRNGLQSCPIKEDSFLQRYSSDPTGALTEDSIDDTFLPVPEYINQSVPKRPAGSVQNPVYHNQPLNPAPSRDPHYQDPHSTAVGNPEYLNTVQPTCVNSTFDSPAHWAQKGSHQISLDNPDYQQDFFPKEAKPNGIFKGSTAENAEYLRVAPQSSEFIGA
# Chain of EGFR (L858R/T790M/C797S) (P00533 25-1210 T790M/C797S/L858R): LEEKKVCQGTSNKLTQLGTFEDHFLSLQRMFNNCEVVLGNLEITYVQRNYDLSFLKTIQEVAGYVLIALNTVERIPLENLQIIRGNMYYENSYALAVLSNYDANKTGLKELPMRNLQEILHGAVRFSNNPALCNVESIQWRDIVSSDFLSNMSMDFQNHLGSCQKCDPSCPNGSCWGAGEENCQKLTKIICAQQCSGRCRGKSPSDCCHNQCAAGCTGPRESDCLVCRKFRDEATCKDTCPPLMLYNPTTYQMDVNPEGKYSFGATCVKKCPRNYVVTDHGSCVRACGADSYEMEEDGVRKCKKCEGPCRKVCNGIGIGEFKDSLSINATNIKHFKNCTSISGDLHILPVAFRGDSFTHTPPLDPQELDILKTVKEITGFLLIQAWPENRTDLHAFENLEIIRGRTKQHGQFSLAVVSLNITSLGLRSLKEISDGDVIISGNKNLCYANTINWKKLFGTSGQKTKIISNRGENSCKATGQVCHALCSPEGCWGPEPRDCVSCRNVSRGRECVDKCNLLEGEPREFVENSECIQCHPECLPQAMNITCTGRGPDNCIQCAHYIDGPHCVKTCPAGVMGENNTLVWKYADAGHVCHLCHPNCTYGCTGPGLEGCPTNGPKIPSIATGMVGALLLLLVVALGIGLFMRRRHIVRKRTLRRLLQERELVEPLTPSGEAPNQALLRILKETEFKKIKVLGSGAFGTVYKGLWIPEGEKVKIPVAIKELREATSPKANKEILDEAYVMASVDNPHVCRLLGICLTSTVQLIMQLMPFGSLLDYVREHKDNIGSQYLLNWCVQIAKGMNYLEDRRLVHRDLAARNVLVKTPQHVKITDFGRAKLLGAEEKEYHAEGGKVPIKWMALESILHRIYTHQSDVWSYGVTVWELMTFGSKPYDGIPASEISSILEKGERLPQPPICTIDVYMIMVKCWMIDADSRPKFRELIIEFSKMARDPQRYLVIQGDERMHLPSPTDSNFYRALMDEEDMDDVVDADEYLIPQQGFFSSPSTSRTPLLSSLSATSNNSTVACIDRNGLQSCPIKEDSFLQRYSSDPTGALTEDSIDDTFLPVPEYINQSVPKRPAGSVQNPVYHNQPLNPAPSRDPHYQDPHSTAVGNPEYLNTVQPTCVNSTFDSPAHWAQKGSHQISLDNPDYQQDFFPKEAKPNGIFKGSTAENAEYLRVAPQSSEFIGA
# T1 sequence (P00533 25-1210): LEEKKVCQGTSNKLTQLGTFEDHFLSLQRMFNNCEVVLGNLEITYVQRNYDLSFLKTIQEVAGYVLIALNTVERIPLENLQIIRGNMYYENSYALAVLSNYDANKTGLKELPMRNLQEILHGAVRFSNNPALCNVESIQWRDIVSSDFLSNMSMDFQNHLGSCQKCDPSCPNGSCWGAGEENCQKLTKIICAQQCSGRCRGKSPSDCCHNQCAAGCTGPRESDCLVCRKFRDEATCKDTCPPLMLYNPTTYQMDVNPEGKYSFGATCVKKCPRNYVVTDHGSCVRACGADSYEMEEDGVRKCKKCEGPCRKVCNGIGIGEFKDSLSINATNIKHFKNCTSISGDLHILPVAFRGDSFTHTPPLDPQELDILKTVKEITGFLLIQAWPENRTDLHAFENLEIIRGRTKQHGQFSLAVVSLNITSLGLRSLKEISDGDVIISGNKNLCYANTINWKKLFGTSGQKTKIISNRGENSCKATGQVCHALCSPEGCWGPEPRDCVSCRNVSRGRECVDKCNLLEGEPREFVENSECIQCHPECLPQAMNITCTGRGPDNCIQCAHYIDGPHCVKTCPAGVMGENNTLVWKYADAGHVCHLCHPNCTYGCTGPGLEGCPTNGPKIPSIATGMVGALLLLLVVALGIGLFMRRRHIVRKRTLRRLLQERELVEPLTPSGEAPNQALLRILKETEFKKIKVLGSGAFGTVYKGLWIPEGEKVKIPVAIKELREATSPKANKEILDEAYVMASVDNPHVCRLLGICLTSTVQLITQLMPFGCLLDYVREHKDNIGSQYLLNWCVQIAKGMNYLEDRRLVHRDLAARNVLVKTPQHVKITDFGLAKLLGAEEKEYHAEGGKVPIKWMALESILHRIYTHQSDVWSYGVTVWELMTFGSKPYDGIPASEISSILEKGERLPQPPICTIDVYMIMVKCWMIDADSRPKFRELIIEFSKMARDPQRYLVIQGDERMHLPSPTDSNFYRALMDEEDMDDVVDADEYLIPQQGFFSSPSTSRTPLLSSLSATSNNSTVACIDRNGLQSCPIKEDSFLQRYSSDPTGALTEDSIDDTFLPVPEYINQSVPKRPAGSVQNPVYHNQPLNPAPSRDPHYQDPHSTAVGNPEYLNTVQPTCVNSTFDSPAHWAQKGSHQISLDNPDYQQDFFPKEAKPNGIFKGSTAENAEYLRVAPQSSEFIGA
# T3 sequence (P00533 with tags, fused parts or gaps DEL746-750): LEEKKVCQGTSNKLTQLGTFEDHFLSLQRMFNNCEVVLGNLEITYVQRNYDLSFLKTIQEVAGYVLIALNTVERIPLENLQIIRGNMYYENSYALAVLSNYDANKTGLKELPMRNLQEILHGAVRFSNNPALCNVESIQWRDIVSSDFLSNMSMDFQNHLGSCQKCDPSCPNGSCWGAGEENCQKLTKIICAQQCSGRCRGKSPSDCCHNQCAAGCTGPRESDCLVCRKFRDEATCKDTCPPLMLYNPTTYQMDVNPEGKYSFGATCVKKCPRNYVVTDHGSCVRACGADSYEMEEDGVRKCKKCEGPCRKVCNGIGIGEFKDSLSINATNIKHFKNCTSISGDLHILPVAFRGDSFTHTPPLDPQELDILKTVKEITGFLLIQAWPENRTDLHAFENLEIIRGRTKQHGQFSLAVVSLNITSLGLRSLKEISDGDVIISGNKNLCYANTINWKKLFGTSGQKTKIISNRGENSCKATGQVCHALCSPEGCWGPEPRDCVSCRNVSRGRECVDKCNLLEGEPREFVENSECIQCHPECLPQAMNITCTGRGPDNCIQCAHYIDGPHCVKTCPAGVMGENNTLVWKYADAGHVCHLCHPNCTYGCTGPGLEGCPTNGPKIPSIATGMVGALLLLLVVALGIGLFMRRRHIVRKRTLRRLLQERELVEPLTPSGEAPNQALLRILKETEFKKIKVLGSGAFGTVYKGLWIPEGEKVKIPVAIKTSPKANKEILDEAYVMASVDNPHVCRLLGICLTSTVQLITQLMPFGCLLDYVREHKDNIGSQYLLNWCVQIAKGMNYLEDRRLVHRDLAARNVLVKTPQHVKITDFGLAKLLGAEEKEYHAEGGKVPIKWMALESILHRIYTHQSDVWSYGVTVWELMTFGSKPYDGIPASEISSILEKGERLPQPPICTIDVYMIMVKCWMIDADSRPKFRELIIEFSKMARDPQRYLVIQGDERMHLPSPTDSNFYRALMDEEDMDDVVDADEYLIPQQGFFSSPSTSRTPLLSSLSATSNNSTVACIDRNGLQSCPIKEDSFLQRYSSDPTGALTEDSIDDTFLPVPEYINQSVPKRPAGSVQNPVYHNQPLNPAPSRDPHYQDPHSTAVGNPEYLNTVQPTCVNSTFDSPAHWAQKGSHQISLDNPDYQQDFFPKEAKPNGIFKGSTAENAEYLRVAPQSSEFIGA
SMILES,IC50 [1],IC50 (EGFR (D746-750/C797S)),IC50 (EGFR (D746-750)),IC50 [2],IC50 (NCI-H1975 cells),IC50 (EGFR (L858R/T790M/C797S)),IC50 [3],IC50 (PC-9 cells),IC50 (HCC827 cells),IC50 (EGFR (D770_N771insNPG)),IC50 [4],IC50 [5],IC50 [6]
"CCOc1nn(CCO)c2c1/C=C/c1n[nH]c3cnc(cc13)-c1c(C)nn(C)c1OCCN(C)C2 [Ex. 68, 2-[(17E)-16-ethoxy-6,8,12-trimethyl-2,8,10,11,12,13-hexahydro-14H-5,3-(azenometheno)tripyrazolo[3,4-f:3′,4′-j:4″,3″-n][1,4]oxazacyclopentadecin-14-yl]ethan-1-ol]",21 nM,1.18 nM,0.33 nM,6.39 nM,227 nM,0.44 nM,6.22 nM,15.4 nM,2.49 nM,0.95 nM,–,–,–
"CCOc1nn(CCO)c2c1/C=C/c1n[nH]c3cnc(cc13)-c1c(c(C)nn1C)OCCN(C)C2 [Ex. 69, 2-[(17E)-16-ethoxy-6,8,12-trimethyl-2,6,10,11,12,13-hexahydro-14H-5,3-(azenometheno)tripyrazolo[3,4-f:3′,4′-j:3″,4″-n][1,4]oxazacyclopentadecin-14-yl]ethan-1-ol]",160 nM,3.68 nM,1.87 nM,262 nM,308 nM,1.93 nM,75.4 nM,92 nM,41.9 nM,15.3 nM,–,–,–
"CCOc1nn([C@@H](C)CO)c2c1/C=C/c1n[nH]c3cnc(cc13)-c1c(C)nn(C)c1O[C@@H](C)CN(C(C)=O)C2 [Ex. 112, 1-[(10S,17E)-16-ethoxy-14-[(2S)-1-hydroxypropan-2-yl]-6,8,10-trimethyl-2,8,10,11,13,14-hexahydro-12H-5,3-(azenometheno)tripyrazolo[3,4-f:3′,4′-j:4″,3″-n][1,4]oxazacyclopentadecin-12-yl]ethan-1-one]",–,–,–,–,–,–,–,–,–,–,396 nM,29.5 nM,97.7 nM

# Further molecules by falling IC50 [1], results first:
IC50 [1],IC50 (EGFR (D746-750/C797S)),IC50 (EGFR (D746-750)),IC50 [2],IC50 (NCI-H1975 cells),IC50 (EGFR (L858R/T790M/C797S)),IC50 [3],IC50 (PC-9 cells),IC50 (HCC827 cells),IC50 (EGFR (D770_N771insNPG)),IC50 [4],IC50 [5],IC50 [6],SMILES
16 nM,1.65 nM,0.56 nM,5.54 nM,17.6 nM,1.08 nM,2.98 nM,1.81 nM,1.13 nM,0.69 nM,–,–,–,"CCN1Cc2c(c(OCC#N)nn2[C@@H](C)CO)/C=C/c2n[nH]c3cnc(cc23)-c2c(C)nn(C)c2O[C@@H](C)C1 [Ex. 67, {[(10S,17E)-12-ethyl-14-[(2S)-1-hydroxypropan-2-yl]-6,8,10-trimethyl-2,10,11,12,13,14-hexahydro-8H-5,3-(azenometheno)tripyrazolo[3,4-f:3′,4′-j:4″,3″-n][1,4]oxazacyclopentadecin-16-yl]oxy}acetonitrile]"
15.8 nM,1.61 nM,0.61 nM,1.56 nM,5.36 nM,1.58 nM,1.11 nM,1.6 nM,0.63 nM,0.99 nM,–,–,–,"CCOc1nn([C@@H](C)CO)c2c1/C=C/c1n[nH]c3cnc(cc13)-c1c(C)nn(C)c1OC[C@H]1CCCN1C2 [Ex. 65, (2S)-2-[(8aR,19E)-1-ethoxy-11,13-dimethyl-7,8,8a,9,11,17-hexahydro-6H-14,16-(azenometheno)tripyrazolo[3,4-f:3′,4′-j:4″,3″-n]pyrrolo[2,1-c][1,4]oxazacyclopentadecin-3(4H)-yl]propan-1-ol]"
